US20050148598A1, “Trioxane derivatives” (priority 2001, published 2005)
Where two headings read alike, the source gives them in different places.

Assays:
[1] = system: K1 strain of P. falciparum; test: 48-h [3H]-hypoxanthine incorporation antimalarial sensitivity assay, K1 strain; type: cell-based
Method: (§1) The antimalarial activity of the new compounds was assessed using two strains of P. falciparum from Thailand: (a) the uncloned K1 strain which is known to be CQ resistant and (b) the HB3 strain which is sensitive to all antimalarials. Parasites were maintained in continuous culture using the method of Trager and Jenson (J. Parasitol., 1977, 63, 883-886). Cultures were grown in flasks containing human erythrocytes (2-5%) with parasitemia in the range of 1% to 10% suspended in RPMI 1640 medium supplemented with 25 mM HEPES and 32 mM NaHCO3, and 10% human serum (complete medium). Cultures were gassed with a mixture of 3% O2, 4% CO2 and 93% N2.
(§2) Antimalarial activity was assessed with an adaption of the 48-h sensitivity assay of Desjardins et al. (Antimicrob. Agents. Chemother., 1979, 16, 710-718) using [^3H]-hypoxanthine incorporation as an assessment of parasite growth. Stock drug solutions were prepared in 100% dimethylsulphoxide (DMSO) and diluted to the appropriate concentration using complete medium. Assays were performed in sterile 96-well microtitre plates, each plate containing 200 μl of parasite culture (2% parasitemia, 0.5% haematocrit) with or without 10 μl drug dilutions. Each drug was tested in triplicate and parasite growth was compared to control wells (which constituted 100% parasite growth). After 24-h incubation at 37° C., 0.5 μCi hypoxanthine was added to each well. Cultures were incubated for a further 24 h before they were harvested onto filter-mats, dried for 1 h at 55° C. and counted using a Wallac 1450 Microbeta Trilux Liquid scintillation and luminescence counter. IC50 values were calculated by interpolation of the probit transformation of the log dose—response curve.

[2] = system: HB3 strain of P. falciparum; test: 48-h [3H]-hypoxanthine incorporation antimalarial sensitivity assay, HB3 strain; type: cell-based; conditions: HB3 strain (sensitive) of P. falciparum in vitro
Method: as §1, §2

MCF7 (Breast) = test: NCI 3-cell line anticancer assay, MCF7; type: cell-based; conditions: 1.00E−04 Molar, 48 hours, sulforhodamine B
Method: (§3) The anticancer activity of these compounds of the present invention was also assessed, by NCI 3-cell line anticancer assay. In this protocol, each cell line is inoculated and preincubated on a microtiter plate. Test agents are then added at a single concentration and the culture incubated for 48 hours. End-point determinations are made with sulforhodamine B, a protein-binding dye. Results for each test agent are reported as the percentage of growth of the treated cells when compared to the untreated control cells. Compounds which reduce the growth of any one of the cells lines to 32% or less (negative numbers indicate cell kill) are passed on for evaluation in the full panel of 60 cell lines over a 5-log dose range.

SF-268 (CNS) = test: NCI 3-cell line anticancer assay, SF-268; type: cell-based; conditions: 1.00E−04 Molar, 48 hours, sulforhodamine B
Method: as §3

NCI-H460 (Lung) = test: NCI 3-cell line anticancer assay, NCI-H460; type: cell-based; conditions: 1.00E−04 Molar, 48 hours, sulforhodamine B
Method: as §3

L1210 cells = conditions: cited from earlier work
[3] = K1 strain (CQ resistant) of P. falciparum in vitro, read-out: IC50
[4] = Plasmodium falciparum, K1 strain (CQ resistant) of P. falciparum in vitro, read-out: IC50

## 10β-[[4-[Phenylpiperazyl)methyl]benzyl]dihydroartemisinin [Compound 13a]
[1]; [3]
  IC50: 8.2 nM

## CO[C@H]1O[C@@H]2O[C@@]3(C)CC[C@H]4[C@H](C)CC[C@@H]([C@H]1C)[C@@]24OO3 [Artemether, artemether, reference compound]
[1]; [4]
  IC50: 6.5 nM
[2]; Plasmodium falciparum
  IC50: 9.2 nM

## CCN(CC)CCCC(C)Nc1ccnc2cc(Cl)ccc12 (stereo not shown) [Chloroquine, chloroquine, reference compound]
[1]; Plasmodium falciparum, K1
  IC50: 255 nM

## CC1CCC2C(C)C(OCc3ccc(CN4CCN(c5ccc([N+](=O)[O-])cc5)CC4)cc3)OC3OC4(C)CCC1C32OO4 (stereo not shown) [Compound 13b]
[1]; [3]
  IC50: 138 nM

## CC1CCC2C(C)C(OCc3ccc(CN4CCN(c5ccc(F)cc5)CC4)cc3)OC3OC4(C)CCC1C32OO4 (stereo not drawn) [Compound 13c, 10β-[[4-[(4-Fluorophenylpiperazyl)methyl]benzyl]oxy]dihydroartemisnin]
[1]; [3]
  IC50: 6.3 nM
MCF7 (Breast)
  percentage of growth of the treated cells compared to untreated control cells, MCF7 (Breast): 13%
SF-268 (CNS)
  percentage of growth of the treated cells compared to untreated control cells, SF-268 (CNS): 27%
NCI-H460 (Lung)
  percentage of growth of the treated cells compared to untreated control cells, NCI-H460 (Lung): 12%
[2]
  IC50: 2.3 nM

## CC1CCC2C(C)C(OCc3ccc(CN4CCN(c5ccc(C(F)(F)F)cc5)CC4)cc3)OC3OC4(C)CCC1C32OO4 (stereo not drawn) [Compound 13d, 10β-[[4-[(4-Trifluoromethylphenylpiperazyl)methyl]benzyl]oxy]dihydroartemisinin]
[1]; [3]
  IC50: 12.5 nM
[2]
  IC50: 8.1 nM

## C[C@@H]1CCC2[C@@H](C)[C@@H](OCc3ccc(CN4CCN(Cc5ccccc5)CC4)cc3)OC3O[C@@]4(C)CC[C@@H]1[C@]32OO4 (stereo partly drawn) [Compound 13e, 10β-[[4-[(Benzylpiperazyl)methyl]benzyl]oxy]dihydroartemisinin]
[1]; [4]
  IC50: 3.8 nM
[2]; Plasmodium falciparum
  IC50: 1.8 nM

## CC1CCC2C(C)C(OCc3cccc(CN4CCN(c5ccccc5)CC4)c3)OC3OC4(C)CCC1C32OO4 (stereo not drawn) [Compound 13f, 10β-[[3-[(Phenylpiperazyl)methyl]benzyl]oxy]dihydroartemisinin]
[1]; [3]
  IC50: 6.6 nM
[2]
  IC50: 3.4 nM

## CC1CCC2C(C)C(OCc3cccc(CN4CCN(c5ccc([N+](=O)[O-])cc5)CC4)c3)OC3OC4(C)CCC1C32OO4 (stereo not drawn) [Compound 13g, 10β-[[3-[(4-Nitrophenylpiperazyl)methyl]benzyl]oxy]dihydroartemisinin]
[1]; [3]
  IC50: 4.3 nM
[2]
  IC50: 4.3 nM

## C[C@H]1[C@@H](OCc2cccc(CN3CCN(c4ccc(Cl)cc4)CC3)c2)O[C@@H]2O[C@@]3(C)CC[C@H]4[C@H](C)CC[C@@H]1[C@@]24OO3 [Compound 13h, 10β-[[3-[(4-Chlorophenylpiperazyl)methyl]benzyl]oxy]dihydroartemisinin]
[1]; [3]
  IC50: 13.3 nM
MCF7 (Breast)
  percentage of growth of the treated cells compared to untreated control cells, MCF7 (Breast): 11%
SF-268 (CNS)
  percentage of growth of the treated cells compared to untreated control cells, SF-268 (CNS): 31%
NCI-H460 (Lung)
  percentage of growth of the treated cells compared to untreated control cells, NCI-H460 (Lung): 22%

## CC1CCC2C(C)C(OCc3cccc(CN4CCN(c5cccc(C(F)(F)F)c5)CC4)c3)OC3OC4(C)CCC1C32OO4 (stereo not drawn) [Compound 13i, 10β-[[3-[(3-Trifluoromethylphenylpiperazyl)methyl]benzyl]oxy]dihydroartemisinin]
[1]; [3]
  IC50: 22.5 nM
MCF7 (Breast)
  percentage of growth of the treated cells compared to untreated control cells, MCF7 (Breast): 10%
SF-268 (CNS)
  percentage of growth of the treated cells compared to untreated control cells, SF-268 (CNS): 29%
NCI-H460 (Lung)
  percentage of growth of the treated cells compared to untreated control cells, NCI-H460 (Lung): 15%

## CC1CCC2C(C)C(OCc3cccc(CN4CCN(c5ccc(F)cc5)CC4)c3)OC3OC4(C)CCC1C32OO4 (stereo not drawn) [Compound 13j, 10β-[[3-[(4-Fluorophenylpiperazyl)methyl]benzyl]oxy]dihydroartemisinin]
[1]; [3]
  IC50: 12.6 nM
[2]
  IC50: 12.6 nM

## CCNCCCCNCCCCNCCCCNCC [DEHSPM]
L1210 cells
  cytotoxic effects in L1210 cells: 0.06 µM

## CCNCCCNCCCNCCCNCC [DENSPM]
L1210 cells
  cytotoxic effects in L1210 cells: 1.3 µM

## CCNCCCNCCCCNCCCNCC [DESPM]
L1210 cells
  cytotoxic effects in L1210 cells: 0.2 µM
